Measurements from ChEMBL document CHEMBL5034023, “Development of Multifunctional and Orally Active Cyclic Peptide Agonists of Opioid/Neuropeptide FF Receptors that Produce Potent, Long-Lasting, and Peripherally Restricted Antinociception with Diminished Side Effects” (J Med Chem, 2021).
Active and inactive are the calls of the source. The rule behind the calls is not given here. Bridge positions count the residues as written; N and C are the ends. Square brackets hold non-standard residues; d marks the D form. Peptide text beside a SMILES is read from it. NMeF = CN[C@@H](Cc1ccccc1)C(=O)O; dOrn = NCCC[C@@H](N)C(=O)O; dDab = NCC[C@@H](N)C(=O)O; dDap = NC[C@@H](N)C(=O)O

How the values were obtained:
[1] = biological target: Kappa-type opioid receptor (Homo sapiens, UniProt P41145); format: functional, cell-based, HEK293-A
[2] = biological target: T1, Delta-type opioid receptor (Homo sapiens, UniProt P41143); assay: Agonist activity at DOR (unknown origin) expressed in HEK293-A cells assessed as inhibition of forskolin-induced cAMP accumulation preincubated for 30 mins in presence of 3-isobutyl-1-methylxanthine followed by forskolin and compound addition by competitive PKA binding assay; format: functional, cell-based
[3] = biological target: T1, Delta-type opioid receptor; assay: Agonist activity at DOR (unknown origin) expressed in HEK293-A cells assessed as inhibition of forskolin-induced cAMP accumulation preincubated for 30 mins in presence of 3-isobutyl-1-methylxanthine followed by forskolin and compound addition by competitive PKA binding assay relative to control; format: functional, cell-based
[4] = biological target: T2, Neuropeptide FF receptor 1 (Homo sapiens, UniProt Q9GZQ6); assay: Agonist activity at NPFF1R (unknown origin) expressed in HEK293-A cells assessed as inhibition of forskolin-induced cAMP accumulation preincubated for 30 mins in presence of 3-isobutyl-1-methylxanthine followed by forskolin and compound addition by competitive PKA binding assay; format: functional, cell-based
[5] = biological target: T2, Neuropeptide FF receptor 1; assay: Agonist activity at NPFF1R (unknown origin) expressed in HEK293-A cells assessed as inhibition of forskolin-induced cAMP accumulation by measuring maximal efficacy preincubated for 30 mins in presence of 3-isobutyl-1-methylxanthine followed by forskolin and compound addition by competitive PKA binding assay relative to control; format: functional, cell-based; conditions: filed as agonist
[6] = biological target: T3, Neuropeptide FF receptor 2 (Homo sapiens, UniProt Q9Y5X5); assay: Agonist activity at NPFF2R (unknown origin) expressed in HEK293-A cells assessed as inhibition of forskolin-induced cAMP accumulation preincubated for 30 mins in presence of 3-isobutyl-1-methylxanthine followed by forskolin and compound addition by competitive PKA binding assay; format: functional, cell-based
[7] = biological target: T3, Neuropeptide FF receptor 2; assay: Agonist activity at NPFF2R (unknown origin) expressed in HEK293-A cells assessed as inhibition of forskolin-induced cAMP accumulation by measuring maximal efficacy preincubated for 30 mins in presence of 3-isobutyl-1-methylxanthine followed by forskolin and compound addition by competitive PKA binding assay relative to control; format: functional, cell-based; conditions: filed as agonist
[8] = Metabolic stability in mouse plasma assessed as degradation half life at 0.01 M measured up to 360 mins; format: ADME, cell-free
Mus musculus [9] = assay: Antinociceptive activity against Kunming mouse model of thermal-induced nociception assessed as peripheral analgesia administered subcutaneously by tail-flick test; format: functional; conditions: sc
Mus musculus [10] = assay: Antinociceptive activity against Kunming mouse model of thermal-induced nociception assessed as duration of analgesic effect administered subcutaneously by tail-flick test; format: functional
Mus musculus [11] = assay: Potency index, ratio of test compound ED50 to DN-9 ED50 for antinociceptive activity against Kunming mouse model of thermal-induced nociception assessed as peripheral analgesia administered subcutaneously by tail-flick test; format: functional
Mus musculus [12] = assay: Antinociceptive activity in Kunming mouse assessed as analgesic tolerance administered subcutaneously once daily for 8 days by tail flick test; format: functional, organism-based; conditions: time 8.0 day
Mus musculus [13] = assay: Antinociceptive activity against Kunming mouse model of thermal-induced nociception assessed as maximum possible effect at 86.8 nmol/kg, po measured after 20 min by tail flick test relative to control; format: functional
Mus musculus [14] = assay: Antinociceptive activity against Kunming mouse model of thermal-induced nociception assessed as maximum possible effect at 86.8 nmol/kg, po measured after 30 min by tail flick test relative to control; format: functional; conditions: 0.5 h
Mus musculus [15] = assay: Antinociceptive activity against Kunming mouse model of thermal-induced nociception assessed as maximum possible effect at 86.8 nmol/kg, po measured after 60 min by tail flick test relative to control; format: functional; conditions: 1 h
[16] = biological target: T1, Delta-type opioid receptor; assay: Potency index, ratio of DN-9 EC50 to test compound EC50 for agonist activity at DOR (unknown origin) expressed in HEK293-A cells assessed as inhibition of forskolin-induced cAMP accumulation preincubated for 30 mins in presence of 3-isobutyl-1-methylxanthine followed by forskolin and compound addition by competitive PKA binding assay; format: functional, cell-based
Mu-type opioid receptor = Mu-type opioid receptor (Homo sapiens, UniProt P35372)
Mus musculus [17] = assay: Antinociceptive activity against Kunming mouse model of thermal-induced nociception assessed as maximum possible effect at 89 nmol/kg, po measured after 20 min by tail flick test relative to control; format: functional
Mus musculus [18] = assay: Antinociceptive activity against Kunming mouse model of thermal-induced nociception assessed as maximum possible effect at 89 nmol/kg, po measured after 30 min by tail flick test relative to control; format: functional; conditions: 0.5 h
Mus musculus [19] = assay: Antinociceptive activity against Kunming mouse model of thermal-induced nociception assessed as maximum possible effect at 89 nmol/kg, po measured after 60 min by tail flick test relative to control; format: functional; conditions: 1 h
Mus musculus [20] = assay: Antinociceptive activity against Kunming mouse model of thermal-induced nociception assessed as maximum possible effect at 90.1 nmol/kg, po measured after 20 min by tail flick test relative to control; format: functional
Mus musculus [21] = assay: Antinociceptive activity against Kunming mouse model of thermal-induced nociception assessed as maximum possible effect at 90.1 nmol/kg, po measured after 30 min by tail flick test relative to control; format: functional; conditions: 0.5 h
Mus musculus [22] = assay: Antinociceptive activity against Kunming mouse model of thermal-induced nociception assessed as maximum possible effect at 90.1 nmol/kg, po measured after 60 min by tail flick test relative to control; format: functional; conditions: 1 h
Mus musculus [23] = assay: Antinociceptive activity against Kunming mouse model of thermal-induced nociception assessed as maximum possible effect at 37915 nmol/kg, po measured after 20 min by tail flick test relative to control; format: functional
Mus musculus [24] = assay: Antinociceptive activity against Kunming mouse model of thermal-induced nociception assessed as maximum possible effect at 37915 nmol/kg, po measured after 30 min by tail flick test relative to control; format: functional; conditions: 0.5 h
Mus musculus [25] = assay: Antinociceptive activity against Kunming mouse model of thermal-induced nociception assessed as maximum possible effect at 37915 nmol/kg, po measured after 60 min by tail flick test relative to control; format: functional; conditions: 1 h
Mus musculus [26] = assay: Antinociceptive activity against Kunming mouse model of thermal-induced nociception assessed as prolongation of tail-flick latency period at 38 umol/kg, po measured up to 240 mins by tail-flick test; format: functional, organism-based; conditions: dose 38.0 µmol/kg, time min <=240
Mus musculus [27] = assay: Antinociceptive activity against Kunming mouse model of thermal-induced nociception assessed as maximum possible effect at 87.9 nmol/kg, po measured after 20 min by tail flick test relative to control; format: functional
Mus musculus [28] = assay: Antinociceptive activity against Kunming mouse model of thermal-induced nociception assessed as maximum possible effect at 87.9 nmol/kg, po measured after 30 min by tail flick test relative to control; format: functional; conditions: 0.5 h
Mus musculus [29] = assay: Antinociceptive activity against Kunming mouse model of thermal-induced nociception assessed as maximum possible effect at 87.9 nmol/kg, po measured after 60 min by tail flick test relative to control; format: functional; conditions: 1 h

Kappa-type opioid receptor, sequence (P41145 whole entry): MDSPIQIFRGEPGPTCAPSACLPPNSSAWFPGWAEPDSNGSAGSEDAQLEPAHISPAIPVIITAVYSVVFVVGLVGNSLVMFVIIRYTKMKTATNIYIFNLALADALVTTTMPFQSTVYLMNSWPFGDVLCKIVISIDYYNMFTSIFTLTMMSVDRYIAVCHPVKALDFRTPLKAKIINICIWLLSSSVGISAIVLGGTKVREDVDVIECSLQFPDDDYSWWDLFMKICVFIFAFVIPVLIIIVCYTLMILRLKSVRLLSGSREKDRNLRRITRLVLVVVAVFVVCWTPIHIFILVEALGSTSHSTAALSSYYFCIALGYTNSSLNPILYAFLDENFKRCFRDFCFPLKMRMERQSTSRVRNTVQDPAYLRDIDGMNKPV
Mu-type opioid receptor, sequence (P35372 whole entry): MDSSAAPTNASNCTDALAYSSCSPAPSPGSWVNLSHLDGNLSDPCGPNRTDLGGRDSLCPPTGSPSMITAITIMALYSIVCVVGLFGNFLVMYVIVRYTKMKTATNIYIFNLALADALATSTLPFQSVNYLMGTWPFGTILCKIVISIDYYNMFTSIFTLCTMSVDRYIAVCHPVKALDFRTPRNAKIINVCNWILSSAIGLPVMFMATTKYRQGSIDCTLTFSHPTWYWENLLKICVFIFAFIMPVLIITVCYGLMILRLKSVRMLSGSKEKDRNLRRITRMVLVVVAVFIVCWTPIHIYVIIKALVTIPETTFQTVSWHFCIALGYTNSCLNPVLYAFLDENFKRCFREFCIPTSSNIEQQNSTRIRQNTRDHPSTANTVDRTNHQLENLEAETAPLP
T2 sequence (Q9GZQ6 whole entry): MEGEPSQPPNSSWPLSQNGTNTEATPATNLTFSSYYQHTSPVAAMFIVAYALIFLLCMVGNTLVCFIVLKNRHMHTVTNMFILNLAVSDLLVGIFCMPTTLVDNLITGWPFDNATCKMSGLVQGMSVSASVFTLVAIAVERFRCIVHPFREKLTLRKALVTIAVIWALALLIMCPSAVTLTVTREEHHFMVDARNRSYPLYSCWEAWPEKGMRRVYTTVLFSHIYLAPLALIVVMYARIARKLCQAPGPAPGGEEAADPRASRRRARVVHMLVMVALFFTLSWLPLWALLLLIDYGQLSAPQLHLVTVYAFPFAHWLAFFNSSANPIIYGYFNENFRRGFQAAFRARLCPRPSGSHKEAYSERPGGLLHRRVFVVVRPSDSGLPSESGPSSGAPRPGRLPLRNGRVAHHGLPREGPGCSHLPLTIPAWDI
T1 sequence (P41143 whole entry): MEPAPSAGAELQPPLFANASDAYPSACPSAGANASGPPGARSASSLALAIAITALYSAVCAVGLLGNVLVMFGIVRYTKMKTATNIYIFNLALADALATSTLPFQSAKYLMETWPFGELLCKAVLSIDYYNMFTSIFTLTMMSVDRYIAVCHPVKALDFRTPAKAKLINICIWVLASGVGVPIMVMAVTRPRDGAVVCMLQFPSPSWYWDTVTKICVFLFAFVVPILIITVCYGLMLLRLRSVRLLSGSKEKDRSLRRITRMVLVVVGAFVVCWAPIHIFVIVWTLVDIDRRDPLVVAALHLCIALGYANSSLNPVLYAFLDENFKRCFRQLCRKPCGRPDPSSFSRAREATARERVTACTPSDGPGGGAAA
T3 sequence (Q9Y5X5 whole entry): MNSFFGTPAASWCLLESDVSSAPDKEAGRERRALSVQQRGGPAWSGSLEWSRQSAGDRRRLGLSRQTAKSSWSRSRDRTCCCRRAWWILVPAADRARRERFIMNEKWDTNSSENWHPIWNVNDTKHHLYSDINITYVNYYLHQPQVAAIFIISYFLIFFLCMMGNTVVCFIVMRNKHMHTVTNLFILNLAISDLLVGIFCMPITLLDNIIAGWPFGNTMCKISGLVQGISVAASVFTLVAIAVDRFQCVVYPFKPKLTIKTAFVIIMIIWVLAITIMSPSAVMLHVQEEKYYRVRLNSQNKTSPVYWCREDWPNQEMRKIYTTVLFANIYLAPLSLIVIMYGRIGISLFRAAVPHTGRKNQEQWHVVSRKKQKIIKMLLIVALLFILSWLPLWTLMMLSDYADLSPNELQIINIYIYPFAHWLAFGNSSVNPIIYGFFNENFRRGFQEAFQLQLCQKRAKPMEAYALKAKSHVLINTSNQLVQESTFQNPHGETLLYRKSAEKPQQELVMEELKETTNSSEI

Structure (SMILES): CN1C(=O)CNC(=O)[C@H](NC(=O)[C@@H](N)Cc2ccc(O)cc2)CC(=O)NCCCC[C@@H](C(=O)N2CCC[C@H]2C(=O)N[C@@H](CCC(N)=O)C(=O)N[C@@H](CCCNC(=N)N)C(=O)N[C@@H](Cc2ccccc2)C(N)=O)NC(=O)[C@@H]1Cc1ccccc1 (H-Y[dD]G[NMeF]KPQRF-NH2; lactam 2-5)
- EC50 [1]: 81.3 nM
- EC50 [2]: 74.2 nM
- Emax ([3]; filed as agonist): 56%
- EC50 [4]: 222 nM
- Emax [5]: 77.6%
- EC50 ([6]; read-out: EC50): 303 nM
- EC50 ([6]; read-out: pEC50 (converted)): 309 nM
- Emax [7]: 71.8%
- half-life at 10000 µM [8]: 10.8 min
- ED50 (Mus musculus [9]): 0.0137 µmol/kg
- Tlast (Mus musculus [10]): 240 min
- Ratio ED50 (Mus musculus [11]): 15.7
- Activity (Mus musculus [12]): inactive
- MPE (Mus musculus [13]): 88.7%
- MPE (Mus musculus [14]): 95.6%
- MPE (Mus musculus [15]): 80.5%
- Ratio EC50 [16]: 7
- EC50 (Mu-type opioid receptor): 66.3 nM

Structure (SMILES): CN1C(=O)CNC(=O)[C@H](NC(=O)[C@@H](N)Cc2ccc(O)cc2)CCNC(=O)C[C@@H](C(=O)N2CCC[C@H]2C(=O)N[C@@H](CCC(N)=O)C(=O)N[C@@H](CCCNC(=N)N)C(=O)N[C@@H](Cc2ccccc2)C(N)=O)NC(=O)[C@@H]1Cc1ccccc1 (H-Y[dDab]G[NMeF]DPQRF-NH2; lactam 2-5)
- EC50 [1]: 71.2 nM
- EC50 [2]: 95.1 nM
- Emax [3]: 31.2%
- EC50 [4]: 180 nM
- Emax [5]: 73.4%
- EC50 ([6]; read-out: EC50): 265 nM
- Emax [7]: 63.2%
- half-life at 10000 µM [8]: 530 min
- ED50 (Mus musculus [9]): 0.0142 µmol/kg
- Tlast (Mus musculus [10]): 240 min
- Ratio ED50 (Mus musculus [11]): 15.2
- Activity (Mus musculus [12]): inactive
- MPE (Mus musculus [17]): 80.8%
- MPE (Mus musculus [18]): 93.8%
- MPE (Mus musculus [19]): 74%
- EC50 (Mu-type opioid receptor): 37.9 nM

Structure (SMILES): CN1C(=O)CNC(=O)[C@H](NC(=O)[C@@H](N)Cc2ccc(O)cc2)CNC(=O)C[C@@H](C(=O)N2CCC[C@H]2C(=O)N[C@@H](CCC(N)=O)C(=O)N[C@@H](CCCNC(=N)N)C(=O)N[C@@H](Cc2ccccc2)C(N)=O)NC(=O)[C@@H]1Cc1ccccc1 (H-Y[dDap]G[NMeF]DPQRF-NH2; lactam 2-5)
- EC50 [1]: 136 nM
- EC50 [2]: 374 nM
- Emax ([3]; filed as agonist): 48%
- EC50 [4]: 90.1 nM
- Emax [5]: 47.5%
- EC50 ([6]; read-out: EC50): 349 nM
- EC50 ([6]; read-out: pEC50 (converted)): 355 nM
- Emax [7]: 63.9%
- half-life at 10000 µM [8]: 65.5 min
- ED50 (Mus musculus [9]): 0.0135 µmol/kg
- Tlast (Mus musculus [10]): 240 min
- Ratio ED50 (Mus musculus [11]): 16
- Activity (Mus musculus [12]): inactive
- MPE (Mus musculus [20]): 93.2%
- MPE (Mus musculus [21]): 97.5%
- MPE (Mus musculus [22]): 80.8%
- EC50 (Mu-type opioid receptor): 238 nM

Structure (SMILES): C[C@@H](NC(=O)[C@@H](N)Cc1ccc(O)cc1)C(=O)NCC(=O)N(C)[C@@H](Cc1ccccc1)C(=O)NCC(=O)N1CCC[C@H]1C(=O)N[C@@H](CCC(N)=O)C(=O)N[C@@H](CCCNC(=N)N)C(=O)N[C@@H](Cc1ccccc1)C(N)=O (H-Y[dA]G[NMeF]GPQRF-NH2)
- half-life at 10000 µM [8]: 21.8 min
- ED50 (Mus musculus [9]): 0.216 µmol/kg
- Tlast (Mus musculus [10]): 90 min
- Ratio ED50 (Mus musculus [11]): 1
- Activity (Mus musculus [12]): inactive
- MPE (Mus musculus [23]): 75.6%
- MPE (Mus musculus [24]): 63.1%
- MPE (Mus musculus [25]): 22.8%
- Activity (Mus musculus [26]): Active

Structure (SMILES): CN1C(=O)CNC(=O)[C@H](NC(=O)[C@@H](N)Cc2ccc(O)cc2)CCCNC(=O)C[C@@H](C(=O)N2CCC[C@H]2C(=O)N[C@@H](CCC(N)=O)C(=O)N[C@@H](CCCNC(=N)N)C(=O)N[C@@H](Cc2ccccc2)C(N)=O)NC(=O)[C@@H]1Cc1ccccc1 (H-Y[dOrn]G[NMeF]DPQRF-NH2; lactam 2-5)
- EC50 [1]: 139 nM
- EC50 [2]: 659 nM
- Emax ([3]; filed as agonist): 51.9%
- EC50 [4]: 439 nM
- Emax [5]: 72.4%
- EC50 ([6]; read-out: EC50): 133 nM
- Emax [7]: 52.8%
- half-life at 10000 µM [8]: 41.1 min
- ED50 (Mus musculus [9]): 0.0132 µmol/kg
- Tlast (Mus musculus [10]): 240 min
- Ratio ED50 (Mus musculus [11]): 16.4
- Activity (Mus musculus [12]): inactive
- MPE (Mus musculus [27]): 80.8%
- MPE (Mus musculus [28]): 96%
- MPE (Mus musculus [29]): 70.7%
- EC50 (Mu-type opioid receptor): 168 nM
